{"source": "patent US12662475B2", "about": "“Difluorocyclohexyl derivatives as IL-17 modulators” (UCB BIOPHARMA SRL, priority 2020, dated 2026)", "note": "Where a name gives a salt, the structure may show the parent alone.", "data": [{"tested_on": "IL-17 induced IL-6 release from human dermal fibroblasts", "assay": "Inhibition of IL-17A induced IL-6 release from dermal fibroblast cell line (HDF cell line assay)", "format": "cell-based", "conditions": "Incubation Time 5 h", "description": "Inhibition of IL-17A Induced IL-6 Release from Dermal Fibroblast Cell Line\nThe purpose of this assay is to test the neutralising ability to IL-17 proteins, in a human primary cell system.\nThe resultant IL-6 response was then measured using a homogenous time-resolved FRET kit from Cisbio. The kit utilises two monoclonal antibodies, one labelled with Eu-Cryptate (Donor) and the second with d2 or XL665 (Acceptor).\nThe ability of a compound to inhibit IL-17 induced IL-6 release from human dermal fibroblasts is measured in this assay.\nThe TrypLE was neutralised using complete medium (45 mL) and the cells were centrifuged at 300×g for 3 minutes. […] The cells were left for a minimum of three hours, at 37° C./5% CO2, to adhere to the plate.\n10 μL from the aqueous dilution plate was transferred to the reagent plate containing 30 μL of the diluted cytokines, to give a 2.5% DMSO solution. The compounds were incubated with the cytokine mixtures for 1 h or 5 h at 37° C. After the incubation, 10 μL was transferred to the assay plate, to give a […] solution, then incubated for 18-20 h at 37° C./5% CO2.", "units": {"IC50": "nM"}, "values": [{"smiles": "Cc1nonc1C(=O)N[C@H](c1nc2c(F)c([C@@H](CC(F)F)C(=O)N[C@@H](C)C(F)(F)F)ccc2[nH]1)C1CCC(F)(F)CC1", "note": "(single isomer, unassigned) [Example 45]", "IC50": 501}, {"smiles": "Cc1nonc1C(=O)N[C@H](c1nc2c(F)c([C@H](CC(F)F)C(=O)N[C@H](C)C(F)(F)F)ccc2[nH]1)C1CCC(F)(F)CC1", "note": "(single isomer, unassigned) [Example 47]", "IC50": 158}, {"smiles": "Cc1nonc1C(=O)N[C@H](c1nc2c(F)c([C@@H](CC(F)F)C(=O)N[C@H](C)C(F)(F)F)ccc2[nH]1)C1CCC(F)(F)CC1", "note": "(single isomer, unassigned) [Example 48]", "IC50": 3160}, {"smiles": "O=C(N[C@H](c1nc2c(F)c([C@H](CC(F)F)C(=O)NCC(F)(F)F)ccc2[nH]1)C1CCC(F)(F)CC1)c1ccccc1F", "note": "(single isomer, unassigned) [Example 50]", "IC50": 10}, {"smiles": "O=C(N[C@H](c1nc2c(F)c([C@@H](CC(F)F)C(=O)NCC(F)(F)F)ccc2[nH]1)C1CCC(F)(F)CC1)c1ccccc1F", "note": "(single isomer, unassigned) [Example 51]", "IC50": 1580}, {"smiles": "CC(C)n1ncnc1C(=O)N[C@H](c1nc2c(F)c([C@@H](CC(F)F)C(=O)NCC(C)(F)F)ccc2[nH]1)C1CCC(F)(F)CC1", "note": "(single isomer, unassigned) [Example 54]", "IC50": 79.4}, {"smiles": "CC(C)n1ncnc1C(=O)N[C@H](c1nc2c(F)c([C@H](CC(F)F)C(=O)NCC(C)(F)F)ccc2[nH]1)C1CCC(F)(F)CC1", "note": "(single isomer, unassigned) [Example 55]", "IC50": 3.98}, {"smiles": "CC(C)n1ncnc1C(=O)N[C@H](c1nc2c(F)c([C@@H](CC(F)F)C(=O)NCC(C)(C)F)ccc2[nH]1)C1CCC(F)(F)CC1", "note": "(single isomer, unassigned) [Example 57]", "IC50": 2510}, {"smiles": "CC(C)n1ncnc1C(=O)N[C@H](c1nc2c(F)c([C@H](CC(F)F)C(=O)NCC(C)(C)F)ccc2[nH]1)C1CCC(F)(F)CC1", "note": "(single isomer, unassigned) [Example 58]", "IC50": 7.94}, {"smiles": "CC(C)(F)CNC(=O)[C@H](CC(F)(F)F)c1ccc2[nH]c([C@@H](NC(=O)c3nonc3C3CC3)C3CCC(F)(F)CC3)nc2c1F", "note": "(single isomer, unassigned) [Example 63]", "IC50": 158}, {"smiles": "CC(C)(F)CNC(=O)[C@@H](CC(F)(F)F)c1ccc2[nH]c([C@@H](NC(=O)c3nonc3C3CC3)C3CCC(F)(F)CC3)nc2c1F", "note": "(single isomer, unassigned) [Example 64]", "IC50": 2}, {"smiles": "CC(C)n1ncnc1C(=O)N[C@H](c1nc2c(F)c([C@@H](CC(F)(F)F)C(=O)NCC(C)(F)F)ccc2[nH]1)C1CCC(F)(F)CC1", "note": "(single isomer, unassigned) [Example 69]", "IC50": 2510}, {"smiles": "CC(C)n1ncnc1C(=O)N[C@H](c1nc2c(F)c([C@H](CC(F)(F)F)C(=O)NCC(C)(F)F)ccc2[nH]1)C1CCC(F)(F)CC1", "note": "(single isomer, unassigned) [Example 70]", "IC50": 6.31}, {"smiles": "CC(C)n1ncnc1C(=O)N[C@H](c1nc2c(F)c([C@@H](CC(F)(F)F)C(=O)NCC(C)(C)F)ccc2[nH]1)C1CCC(F)(F)CC1", "note": "(single isomer, unassigned) [Example 72]", "IC50": 1580}, {"smiles": "CC(C)n1ncnc1C(=O)N[C@H](c1nc2c(F)c([C@H](CC(F)(F)F)C(=O)NCC(C)(C)F)ccc2[nH]1)C1CCC(F)(F)CC1", "note": "(single isomer, unassigned) [Example 73]", "IC50": 6.31}, {"smiles": "CC(F)(F)CNC(=O)[C@H](CC(F)(F)F)c1ccc2[nH]c([C@@H](NC(=O)C3(F)CC3)C3CCC(F)(F)CC3)nc2c1F", "note": "(single isomer, unassigned) [Example 83]", "IC50": 2000}, {"smiles": "CC(F)(F)CNC(=O)[C@@H](CC(F)(F)F)c1ccc2[nH]c([C@@H](NC(=O)C3(F)CC3)C3CCC(F)(F)CC3)nc2c1F", "note": "(single isomer, unassigned) [Example 84]", "IC50": 25.1}, {"smiles": "CC(C)n1ncnc1C(=O)N[C@H](c1nc2c(F)c([C@@H](CC(C)(F)F)C(=O)NCC(C)(F)F)ccc2[nH]1)C1CCC(F)(F)CC1", "note": "(single isomer, unassigned) [Example 86]", "IC50": 6310}, {"smiles": "CC(C)n1ncnc1C(=O)N[C@H](c1nc2c(F)c([C@H](CC(C)(F)F)C(=O)NCC(C)(F)F)ccc2[nH]1)C1CCC(F)(F)CC1", "note": "(single isomer, unassigned) [Example 87]", "IC50": 7.94}, {"smiles": "Cc1nonc1C(=O)N[C@H](c1nc2c(F)c(C(CC(F)(F)F)C(=O)NCCC(F)(F)F)ccc2[nH]1)C1CCC(F)(F)CC1", "note": "(stereo partly drawn) [Example 13, N—[(S)-(4,4-Difluorocyclohexyl){4-fluoro-5-[3,3,3-trifluoro-1-(3,3,3-trifluoropropyl-carbamoyl)propyl]-1H-benzimidazol-2-yl}methyl]-4-methyl-1,2,5-oxadiazole-3-carboxamide]", "IC50": 5.01}, {"smiles": "Cc1nonc1C(=O)N[C@H](c1nc2c(F)c(C(CC(F)(F)F)C(=O)NCC3CC3(F)F)ccc2[nH]1)C1CCC(F)(F)CC1", "note": "(stereo partly drawn) [Example 14, N—[(S)-(4,4-Difluorocyclohexyl)(5-{1-[(2,2-difluorocyclopropyl)methylcarbamoyl]-3,3,3-trifluoropropyl}-4-fluoro-1H-benzimidazol-2-yl)methyl]-4-methyl-1,2,5-oxadiazole-3-carboxamide]", "IC50": 7.94}, {"smiles": "Cc1nonc1C(=O)N[C@H](c1nc2nc(C3(C(=O)NCC(F)(F)F)CCC(F)(F)CC3)ccc2[nH]1)C1CCC(F)(F)CC1", "note": "[Example 39, N—[(S)-(4,4-Difluorocyclohexyl){5-[4,4-difluoro-1-(2,2,2-trifluoroethylcarbamoyl)-cyclohexyl]-1H-imidazo[4,5-b]pyridin-2-yl}methyl]-4-methyl-1,2,5-oxadiazole-3-carboxamide Monoformate Salt]", "IC50": 5.01}, {"smiles": "Cc1nonc1C(=O)N[C@H](c1nc2c(F)c(C(CC(F)F)C(=O)NC(C3CC3)C(F)(F)F)ccc2[nH]1)C1CCC(F)(F)CC1", "note": "(stereo partly drawn) [Example 52, N—[(S)-(5-{1-[(1-Cyclopropyl-2,2,2-trifluoroethyl)carbamoyl]-3,3-difluoropropyl}-4-fluoro-1H-benzimidazol-2-yl)(4,4-difluorocyclohexyl)methyl]-4-methyl-1,2,5-oxadiazole-3-carboxamide]", "IC50": 5.01}, {"smiles": "CC(C)n1ncnc1C(=O)N[C@H](c1nc2nc(C3(C(=O)NCC(F)(F)F)CCC(F)(F)CC3)ccc2[nH]1)C1CCC(F)(F)CC1", "note": "[Example 77, N—[(S)-(4,4-Difluorocyclohexyl){5-[4,4-difluoro-1-(2,2,2-trifluoroethylcarbamoyl)-cyclohexyl]-1H-imidazo[4,5-b]pyridin-2-yl}methyl]-2-isopropyl-1,2,4-triazole-3-carboxamide]", "IC50": 12.6}, {"smiles": "O=C(N[C@H](c1nc2nc(C3(C(=O)NCC(F)(F)F)CCC(F)(F)CC3)ccc2[nH]1)C1CCC(F)(F)CC1)C1(F)CC1", "note": "[Example 78, 1-(2-{(S)-(4,4-Difluorocyclohexyl)[(1-fluorocyclopropanecarbonyl)amino]methyl}-1H-imidazo[4,5-b]pyridin-5-yl)-4,4-difluoro-N-(2,2,2-trifluoroethyl)cyclohexanecarboxamide]", "IC50": 15.8}, {"smiles": "CC(C)n1ncnc1C(=O)N[C@H](c1nc2c(F)c([C@H](CC(C)(F)F)C(=O)NCC(C)(C)F)ccc2[nH]1)C1CCC(F)(F)CC1", "note": "[Example 79, N—[(S)-(4,4-Difluorocyclohexyl)(5-{(1S)-3,3-difluoro-1-[(2-fluoro-2-methylpropyl)-carbamoyl]butyl}-4-fluoro-1H-benzimidazol-2-yl)methyl]-2-isopropyl-1,2,4-triazole-3-carboxamide]", "IC50": 7.94}, {"smiles": "CC(C)n1ncnc1C(=O)N[C@H](c1nc2c(F)c([C@H](CC(F)F)C(=O)NCC(F)(F)F)ccc2[nH]1)C1CCC(F)(F)CC1", "note": "[Example 80, N—[(S)-(4,4-Difluorocyclohexyl){5-[(1S)-3,3-difluoro-1-(2,2,2-trifluoroethylcarbamoyl)-propyl]-4-fluoro-1H-benzimidazol-2-yl}methyl]-2-isopropyl-1,2,4-triazole-3-carboxamide]", "IC50": 6.31}, {"smiles": "O=C(NCC(F)(F)F)[C@@H](CC(F)F)c1ccc2[nH]c([C@@H](NC(=O)C3(F)CC3)C3CCC(F)(F)CC3)nc2c1F", "note": "[Example 81, N—[(S)-(4,4-Difluorocyclohexyl){5-[(1S)-3,3-difluoro-1-(2,2,2-trifluoroethylcarbamoyl)-propyl]-4-fluoro-1H-benzimidazol-2-yl}methyl]-1-fluorocyclopropanecarboxamide]", "IC50": 31.6}]}]}
